Measured values taken from article PMC9782601, “A Fucosylated Lactose-Presenting Tetravalent Glycocluster Acting as a Mutual Ligand of Pseudomonas aeruginosa Lectins A (PA-IL) and B (PA-IIL)—Synthesis and Interaction Studies” (International Journal of Molecular Sciences, 2022).

Columns and labels:
Format in all cases: binding
[1] = biological target: T1, PA-IL (LecA) (Pseudomonas aeruginosa, UniProt Q05097); assay: 1H STD NMR, reference ligand; conditions: 4 mM ligand, 40 μM lectin, D2O, 20 mM Tris-d11, 150 mM NaCl, 5 mM CaCl2, pH 7.5, 283 K
T1 construct: freeze-dried; tetramer, one sugar site with one calcium ion per monomer

[2] = biological target: T2, PA-IIL (LecB) (Pseudomonas aeruginosa, UniProt Q9HYN5); assay: isothermal titration calorimetry, single-site model; conditions: 0.1 M Tris/HCl, 500 μM CaCl2, pH 7.5, 25 °C
T2 construct: freeze-dried; tetramer, one sugar site with two calcium ions per monomer
Source text: isothermal titration calorimetry, single-site model on PA-IIL (LecB)

[3] = biological target: T1, PA-IL (LecA); assay: as above; conditions: 0.1 M Tris/HCl, 500 μM CaCl2, pH 7.5, 25 °C
Source text: isothermal titration calorimetry, single-site model on PA-IL (LecA)

T1 sequence (Q05097 2-122): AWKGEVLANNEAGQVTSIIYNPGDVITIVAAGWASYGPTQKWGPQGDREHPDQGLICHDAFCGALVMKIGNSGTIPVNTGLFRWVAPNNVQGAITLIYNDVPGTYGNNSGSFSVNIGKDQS
T2 sequence (Q9HYN5 entry or part of it): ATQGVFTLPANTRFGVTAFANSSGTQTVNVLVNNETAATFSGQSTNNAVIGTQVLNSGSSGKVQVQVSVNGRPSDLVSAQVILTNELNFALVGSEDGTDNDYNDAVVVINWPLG

## CO[C@H]1O[C@H](CO)[C@H](O)[C@H](O)[C@H]1O [Meα-D-Gal]
[1]
  STD signal: The STD signals (highlighted by red ellipsoids) confirm the binding of Meα-D-Gal

## C#CCO[C@@H]1O[C@H](CO)[C@@H](O[C@@H]2O[C@H](CO)[C@H](O)[C@H](O)[C@H]2O)[C@H](O[C@@H]2O[C@@H](C)[C@@H](O)[C@@H](O)[C@@H]2O)[C@H]1O [compound 6, Compound 6]
[2]; n = 1.12
  Ka [10^4 M^-1]: 344 ± 124 10^4 M^-1
[3]; n = 0.51
  Ka [10^4 M^-1]: 59 ± 28.4 10^4 M^-1

## C[C@@H]1O[C@@H](O[C@@H]2[C@@H](O)[C@H](OCc3cn(CCn4cc(COCC(COCc5cn(CCn6cc(CO[C@@H]7O[C@H](CO)[C@@H](O[C@@H]8O[C@H](CO)[C@H](O)[C@H](O)[C@H]8O)[C@H](O[C@@H]8O[C@@H](C)[C@@H](O)[C@@H](O)[C@@H]8O)[C@H]7O)nn6)nn5)(COCc5cn(CCn6cc(CO[C@@H]7O[C@H](CO)[C@@H](O[C@@H]8O[C@H](CO)[C@H](O)[C@H](O)[C@H]8O)[C@H](O[C@@H]8O[C@@H](C)[C@@H](O)[C@@H](O)[C@@H]8O)[C@H]7O)nn6)nn5)COCc5cn(CCn6cc(CO[C@@H]7O[C@H](CO)[C@@H](O[C@@H]8O[C@H](CO)[C@H](O)[C@H](O)[C@H]8O)[C@H](O[C@@H]8O[C@@H](C)[C@@H](O)[C@@H](O)[C@@H]8O)[C@H]7O)nn6)nn5)nn4)nn3)O[C@H](CO)[C@H]2O[C@@H]2O[C@H](CO)[C@H](O)[C@H](O)[C@H]2O)[C@@H](O)[C@H](O)[C@@H]1O [compound 8, Compound 8]
[2]; n = 1.12 pH, buffer, temperature, tetravalent ligand, n = 1.1
  Ka [10^4 M^-1]: 257 ± 66.9 10^4 M^-1
[3]; n = 0.51 pH, buffer, temperature, tetravalent ligand, n = 0.89
  Ka [10^4 M^-1]: 496 ± 104 10^4 M^-1
